pKi: −log10 of the molar value.
Tests used:
[1] = biological target: D(3) dopamine receptor (Homo sapiens, UniProt P35462)
[2] = biological target: Sodium-dependent serotonin transporter (Homo sapiens, UniProt P31645)
[3] = biological target: 5-hydroxytryptamine receptor 1B (Homo sapiens, UniProt P28222)
[4] = biological target: 5-hydroxytryptamine receptor 1D (Homo sapiens, UniProt P28221)
[5] = biological target: T1, 5-hydroxytryptamine receptor 3A (Homo sapiens, UniProt P46098)
T1 sequence (P46098 whole entry): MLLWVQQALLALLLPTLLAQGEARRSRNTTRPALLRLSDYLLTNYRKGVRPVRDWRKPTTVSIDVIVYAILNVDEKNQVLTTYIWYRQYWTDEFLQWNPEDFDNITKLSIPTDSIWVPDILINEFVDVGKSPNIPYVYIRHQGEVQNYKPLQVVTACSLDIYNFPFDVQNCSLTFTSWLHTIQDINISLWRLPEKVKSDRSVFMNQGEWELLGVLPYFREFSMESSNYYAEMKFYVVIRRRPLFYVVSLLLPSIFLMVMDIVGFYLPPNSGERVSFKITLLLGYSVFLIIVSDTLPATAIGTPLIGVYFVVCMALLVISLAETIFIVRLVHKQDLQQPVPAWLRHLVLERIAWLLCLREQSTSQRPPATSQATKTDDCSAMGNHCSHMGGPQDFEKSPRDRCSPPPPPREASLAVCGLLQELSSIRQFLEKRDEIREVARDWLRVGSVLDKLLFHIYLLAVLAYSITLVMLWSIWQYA

[6] = biological target: T2, D(4) dopamine receptor (Rattus norvegicus, UniProt P30729)
T2 sequence (P30729 whole entry): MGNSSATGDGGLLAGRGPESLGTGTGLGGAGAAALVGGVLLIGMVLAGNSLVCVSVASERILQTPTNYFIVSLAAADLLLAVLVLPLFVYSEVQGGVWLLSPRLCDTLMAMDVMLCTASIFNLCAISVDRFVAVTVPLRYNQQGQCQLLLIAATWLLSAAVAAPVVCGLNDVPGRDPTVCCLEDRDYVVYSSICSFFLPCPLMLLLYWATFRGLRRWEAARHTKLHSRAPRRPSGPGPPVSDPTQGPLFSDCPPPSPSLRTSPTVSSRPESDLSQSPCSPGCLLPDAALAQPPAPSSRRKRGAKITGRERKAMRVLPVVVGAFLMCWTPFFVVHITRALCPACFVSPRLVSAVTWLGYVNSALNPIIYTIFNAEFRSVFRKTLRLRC

[7] = biological target: Histamine H1 receptor (Rattus norvegicus, UniProt P31390)
Histamine H1 receptor (Rattus norvegicus, UniProt P31390), sequence (P31390 whole entry): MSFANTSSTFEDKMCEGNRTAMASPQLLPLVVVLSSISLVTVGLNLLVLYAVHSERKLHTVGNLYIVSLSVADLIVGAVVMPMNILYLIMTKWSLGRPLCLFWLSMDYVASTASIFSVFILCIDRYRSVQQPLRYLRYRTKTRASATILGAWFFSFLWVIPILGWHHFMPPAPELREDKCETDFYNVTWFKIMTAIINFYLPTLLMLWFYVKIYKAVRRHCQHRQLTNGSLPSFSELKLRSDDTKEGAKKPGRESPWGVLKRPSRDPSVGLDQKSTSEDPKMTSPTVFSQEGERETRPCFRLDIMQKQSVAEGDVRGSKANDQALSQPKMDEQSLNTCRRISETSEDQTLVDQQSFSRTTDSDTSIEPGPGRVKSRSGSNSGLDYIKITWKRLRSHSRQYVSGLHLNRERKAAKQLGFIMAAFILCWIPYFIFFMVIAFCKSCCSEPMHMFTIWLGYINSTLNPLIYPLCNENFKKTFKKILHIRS

[8] = biological target: T3, Oxytocin receptor (Homo sapiens, UniProt P30559)
T3 sequence (P30559 whole entry): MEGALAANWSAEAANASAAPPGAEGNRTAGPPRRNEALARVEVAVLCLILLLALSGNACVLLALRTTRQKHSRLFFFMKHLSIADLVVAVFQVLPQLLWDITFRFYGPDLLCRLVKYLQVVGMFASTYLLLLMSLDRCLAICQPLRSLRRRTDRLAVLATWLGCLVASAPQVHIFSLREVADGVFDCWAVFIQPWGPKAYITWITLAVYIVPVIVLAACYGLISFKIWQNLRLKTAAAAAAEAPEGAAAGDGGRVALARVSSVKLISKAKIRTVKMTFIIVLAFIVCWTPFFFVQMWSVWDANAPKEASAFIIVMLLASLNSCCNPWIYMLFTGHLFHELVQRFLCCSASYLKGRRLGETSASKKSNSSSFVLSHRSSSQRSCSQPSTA

[9] = biological target: T4, Muscarinic acetylcholine receptor M5 (Homo sapiens, UniProt P08912)
T4 sequence (P08912 whole entry): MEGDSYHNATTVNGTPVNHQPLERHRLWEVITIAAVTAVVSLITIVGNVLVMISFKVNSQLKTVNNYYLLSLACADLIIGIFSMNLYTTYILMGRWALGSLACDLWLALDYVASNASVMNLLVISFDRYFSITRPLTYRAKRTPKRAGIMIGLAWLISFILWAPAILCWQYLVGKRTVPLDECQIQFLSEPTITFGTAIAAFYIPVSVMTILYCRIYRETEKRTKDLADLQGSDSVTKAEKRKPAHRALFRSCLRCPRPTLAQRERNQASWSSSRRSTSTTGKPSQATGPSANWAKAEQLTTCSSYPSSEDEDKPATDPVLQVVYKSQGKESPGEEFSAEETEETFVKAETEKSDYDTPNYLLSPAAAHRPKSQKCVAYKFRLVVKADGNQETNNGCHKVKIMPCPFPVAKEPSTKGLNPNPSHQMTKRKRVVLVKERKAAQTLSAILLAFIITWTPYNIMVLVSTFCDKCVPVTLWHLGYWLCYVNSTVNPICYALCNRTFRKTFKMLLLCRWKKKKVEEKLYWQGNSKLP

[10] = biological target: Vasopressin V2 receptor (Homo sapiens, UniProt P30518)
Vasopressin V2 receptor, sequence (P30518 whole entry): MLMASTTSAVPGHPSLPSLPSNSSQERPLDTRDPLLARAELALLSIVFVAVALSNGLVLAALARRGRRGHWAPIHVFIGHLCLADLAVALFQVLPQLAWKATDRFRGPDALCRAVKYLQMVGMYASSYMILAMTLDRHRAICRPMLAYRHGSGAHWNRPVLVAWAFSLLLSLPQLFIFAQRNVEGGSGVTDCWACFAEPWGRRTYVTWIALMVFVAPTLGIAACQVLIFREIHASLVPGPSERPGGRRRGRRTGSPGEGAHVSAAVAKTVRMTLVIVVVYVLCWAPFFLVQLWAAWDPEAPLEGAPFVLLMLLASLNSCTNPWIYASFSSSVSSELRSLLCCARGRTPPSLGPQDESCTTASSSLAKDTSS

[11] = biological target: Histamine H1 receptor (Homo sapiens, UniProt P35367)
[12] = biological target: Histamine H2 receptor (Homo sapiens, UniProt P25021)
Histamine H2 receptor, sequence (P25021 whole entry): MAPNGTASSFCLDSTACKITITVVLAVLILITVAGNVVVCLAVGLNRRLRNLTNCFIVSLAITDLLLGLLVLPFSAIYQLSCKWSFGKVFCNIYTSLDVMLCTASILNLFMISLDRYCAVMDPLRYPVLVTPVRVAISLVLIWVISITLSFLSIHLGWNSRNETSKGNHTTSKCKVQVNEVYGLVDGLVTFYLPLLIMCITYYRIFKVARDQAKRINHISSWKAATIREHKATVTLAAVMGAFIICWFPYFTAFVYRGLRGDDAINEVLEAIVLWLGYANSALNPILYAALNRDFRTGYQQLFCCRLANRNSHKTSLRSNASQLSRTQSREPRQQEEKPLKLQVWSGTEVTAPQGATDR

[13] = biological target: Cannabinoid receptor 1 (Rattus norvegicus, UniProt P20272)
[14] = biological target: Neuronal acetylcholine receptor subunit alpha-4 (Homo sapiens, UniProt P43681)
[15] = biological target: Neuronal acetylcholine receptor subunit alpha-4 (Rattus norvegicus, UniProt P09483)
[16] = biological target: Voltage-dependent L-type calcium channel subunit alpha-1C (Rattus norvegicus, UniProt P22002)
Voltage-dependent L-type calcium channel subunit alpha-1C, sequence (P22002 whole entry): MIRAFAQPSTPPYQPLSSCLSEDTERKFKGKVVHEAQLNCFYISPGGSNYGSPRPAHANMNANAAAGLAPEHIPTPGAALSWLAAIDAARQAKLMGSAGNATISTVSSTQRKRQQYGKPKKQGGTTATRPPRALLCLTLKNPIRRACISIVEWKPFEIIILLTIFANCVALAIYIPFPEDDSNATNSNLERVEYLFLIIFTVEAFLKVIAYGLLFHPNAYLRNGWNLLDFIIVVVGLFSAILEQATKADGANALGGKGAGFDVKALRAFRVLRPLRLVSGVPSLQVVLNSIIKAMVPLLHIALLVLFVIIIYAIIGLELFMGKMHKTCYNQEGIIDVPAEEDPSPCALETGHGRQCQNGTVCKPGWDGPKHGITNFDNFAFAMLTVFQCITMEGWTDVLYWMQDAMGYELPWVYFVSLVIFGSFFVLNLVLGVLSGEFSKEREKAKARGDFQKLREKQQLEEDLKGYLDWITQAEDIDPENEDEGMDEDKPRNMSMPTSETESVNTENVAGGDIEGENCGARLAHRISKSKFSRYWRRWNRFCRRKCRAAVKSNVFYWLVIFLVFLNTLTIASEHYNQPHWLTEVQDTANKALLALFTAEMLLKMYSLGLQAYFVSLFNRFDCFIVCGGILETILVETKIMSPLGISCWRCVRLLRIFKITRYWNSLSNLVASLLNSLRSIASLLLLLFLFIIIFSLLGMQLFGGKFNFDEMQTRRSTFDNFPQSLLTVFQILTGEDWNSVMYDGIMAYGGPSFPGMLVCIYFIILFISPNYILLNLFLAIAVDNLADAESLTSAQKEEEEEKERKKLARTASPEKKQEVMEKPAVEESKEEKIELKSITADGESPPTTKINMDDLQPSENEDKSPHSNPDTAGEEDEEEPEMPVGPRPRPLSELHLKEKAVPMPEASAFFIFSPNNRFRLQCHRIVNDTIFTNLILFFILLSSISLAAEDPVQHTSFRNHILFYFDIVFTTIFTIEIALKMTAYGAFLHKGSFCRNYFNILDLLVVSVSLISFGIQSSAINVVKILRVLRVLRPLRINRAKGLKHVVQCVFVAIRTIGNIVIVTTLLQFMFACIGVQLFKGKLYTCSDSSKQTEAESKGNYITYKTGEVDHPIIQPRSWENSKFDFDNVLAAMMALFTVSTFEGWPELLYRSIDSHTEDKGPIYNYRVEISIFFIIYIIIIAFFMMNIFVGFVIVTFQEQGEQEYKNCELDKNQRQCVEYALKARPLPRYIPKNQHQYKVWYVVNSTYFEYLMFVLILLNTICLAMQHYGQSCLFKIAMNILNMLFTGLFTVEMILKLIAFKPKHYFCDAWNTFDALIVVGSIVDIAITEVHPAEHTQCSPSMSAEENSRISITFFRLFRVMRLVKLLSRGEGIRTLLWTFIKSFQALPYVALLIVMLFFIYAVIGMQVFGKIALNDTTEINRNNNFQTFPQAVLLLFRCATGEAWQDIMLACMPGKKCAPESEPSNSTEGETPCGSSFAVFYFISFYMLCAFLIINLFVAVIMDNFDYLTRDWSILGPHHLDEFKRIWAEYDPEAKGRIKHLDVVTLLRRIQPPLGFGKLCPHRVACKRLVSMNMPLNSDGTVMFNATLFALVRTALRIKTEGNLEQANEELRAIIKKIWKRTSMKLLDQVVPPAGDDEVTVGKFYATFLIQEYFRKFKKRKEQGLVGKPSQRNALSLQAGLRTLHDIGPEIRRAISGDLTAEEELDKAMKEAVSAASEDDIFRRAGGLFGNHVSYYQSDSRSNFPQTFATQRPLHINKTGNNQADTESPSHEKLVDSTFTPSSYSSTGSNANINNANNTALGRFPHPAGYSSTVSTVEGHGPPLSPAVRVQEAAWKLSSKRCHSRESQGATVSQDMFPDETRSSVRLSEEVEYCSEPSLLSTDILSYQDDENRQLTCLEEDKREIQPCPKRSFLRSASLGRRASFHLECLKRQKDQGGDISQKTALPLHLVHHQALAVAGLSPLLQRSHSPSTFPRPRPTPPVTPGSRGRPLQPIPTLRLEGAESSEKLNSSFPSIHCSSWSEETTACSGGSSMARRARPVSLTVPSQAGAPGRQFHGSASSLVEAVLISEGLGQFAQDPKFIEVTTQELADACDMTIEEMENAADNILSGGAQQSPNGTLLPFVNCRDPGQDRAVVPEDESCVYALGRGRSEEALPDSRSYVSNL

[17] = biological target: Neuronal acetylcholine receptor subunit alpha-2 (Homo sapiens, UniProt Q15822)
Neuronal acetylcholine receptor subunit alpha-2, sequence (Q15822 whole entry): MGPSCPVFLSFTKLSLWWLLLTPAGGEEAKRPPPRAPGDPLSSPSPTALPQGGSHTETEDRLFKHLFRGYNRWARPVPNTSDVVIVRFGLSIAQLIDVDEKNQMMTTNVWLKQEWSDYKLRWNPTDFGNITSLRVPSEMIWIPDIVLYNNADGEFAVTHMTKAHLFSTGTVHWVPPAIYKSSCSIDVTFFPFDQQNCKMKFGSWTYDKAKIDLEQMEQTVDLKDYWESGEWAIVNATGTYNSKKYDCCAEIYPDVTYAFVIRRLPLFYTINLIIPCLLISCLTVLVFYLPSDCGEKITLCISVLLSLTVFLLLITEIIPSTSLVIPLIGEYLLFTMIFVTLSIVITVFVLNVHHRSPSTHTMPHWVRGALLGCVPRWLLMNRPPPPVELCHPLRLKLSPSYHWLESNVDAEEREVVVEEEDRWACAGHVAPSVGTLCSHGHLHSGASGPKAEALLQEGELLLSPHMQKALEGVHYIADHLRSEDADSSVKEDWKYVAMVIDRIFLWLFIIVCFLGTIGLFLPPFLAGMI

Measured: pKi

5-hydroxytryptamine receptor 1D, sequence (P28221 whole entry): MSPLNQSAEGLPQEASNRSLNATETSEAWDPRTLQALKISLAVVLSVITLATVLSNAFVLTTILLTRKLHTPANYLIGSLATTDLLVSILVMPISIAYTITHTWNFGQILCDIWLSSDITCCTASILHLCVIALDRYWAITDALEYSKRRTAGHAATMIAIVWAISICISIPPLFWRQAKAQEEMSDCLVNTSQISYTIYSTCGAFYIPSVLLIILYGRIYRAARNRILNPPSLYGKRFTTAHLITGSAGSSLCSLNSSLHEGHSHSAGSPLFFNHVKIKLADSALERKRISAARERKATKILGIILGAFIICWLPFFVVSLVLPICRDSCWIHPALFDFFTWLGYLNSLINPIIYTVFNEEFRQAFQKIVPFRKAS
Sodium-dependent serotonin transporter, sequence (P31645 whole entry): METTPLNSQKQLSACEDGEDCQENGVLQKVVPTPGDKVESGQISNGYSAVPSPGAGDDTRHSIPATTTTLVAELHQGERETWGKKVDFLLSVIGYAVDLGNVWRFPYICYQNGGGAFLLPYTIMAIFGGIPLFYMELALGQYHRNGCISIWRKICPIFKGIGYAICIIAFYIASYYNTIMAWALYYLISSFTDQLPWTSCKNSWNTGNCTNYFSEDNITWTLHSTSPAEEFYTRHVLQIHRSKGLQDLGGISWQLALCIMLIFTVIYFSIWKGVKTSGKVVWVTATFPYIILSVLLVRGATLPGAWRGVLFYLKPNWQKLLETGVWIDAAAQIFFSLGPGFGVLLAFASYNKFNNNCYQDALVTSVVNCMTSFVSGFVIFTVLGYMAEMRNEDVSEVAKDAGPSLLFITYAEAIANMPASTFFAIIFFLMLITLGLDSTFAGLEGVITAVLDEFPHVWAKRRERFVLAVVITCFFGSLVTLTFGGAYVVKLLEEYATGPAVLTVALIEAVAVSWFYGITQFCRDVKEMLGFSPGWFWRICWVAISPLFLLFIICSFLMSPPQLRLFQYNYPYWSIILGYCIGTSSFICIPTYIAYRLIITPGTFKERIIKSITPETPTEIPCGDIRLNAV

N[C@@H](CCS(=O)(=O)O)C(=O)O (racemic)
not listed: [11] | [12] | [13] | [14] | [15] | [16] | [17]
< 5.00: all other assays above

N[C@@H](CCS)C(=O)O (racemic) [CAS_778]
< 5.00: all assays above

NC(CS(=O)O)C(=O)O (centres undefined) [CAS_109]
< 5.00: all assays above

NC(CSSCC(N)C(=O)O)C(=O)O (centres undefined) [CAS_595]
< 5.00: all assays above

N[C@@H](CS)C(=O)O [CAS_5862]
< 5.00: all assays above

CSCC[C@@H](N)C(=O)O [CAS_6137]
< 5.00: all assays above

N[C@H](CCS(=O)(=O)O)C(=O)O [D-homocysteic acid]
< 5.00: all assays above

N[C@H](CCS(=O)O)C(=O)O [D-homocysteine sulfinic acid]
< 5.00: all assays above

N[C@@H]1CCSC1=O [D-homocysteine thiolactone]
not listed: [1] | [3] | [4] | [7] | [8] | [10]
< 5.00: all other assays above

N[C@H](CS(=O)(=O)O)C(=O)O [L-cysteic acid]
< 5.00: all assays above

N[C@@H](CCS(=O)O)C(=O)O [L-homocysteine sulfinic acid]
not listed: [2]
< 5.00: all other assays above

N[C@H]1CCSC1=O [NSC_134505]
not listed: [1] | [3] | [4] | [7] | [8] | [10]
< 5.00: all other assays above

From BindingDB's records for doi:10.1124/jpet.102.047092 (Case Western Reserve University, 2003)
